Source: ChEMBL document CHEMBL2069307, “Triazolbenzo[d]thiazoles: efficient synthesis and biological evaluation as neuroprotective agents” (Bioorg Med Chem Lett, 2012)
Calls of active or inactive are those of the source. The rule behind the calls is not given here.

Legend:
SH-SY5Y [1] = experiment: Neuroprotective activity against serum starvation-induced cell death in human SH-SY5Y cells assessed as increase in cell viability at 10 and 20 uM after 3 days by tetrazolium reduction assay; assay type: functional, cell-based
[2] = Solubility of the compound; assay type: physicochemical
SH-SY5Y [3] = experiment: Neuroprotective activity against serum starvation-induced cell death in human SH-SY5Y cells assessed as increase in cell viability at 20 and 40 uM after 3 days by tetrazolium reduction assay; assay type: functional, cell-based
SH-SY5Y [4] = experiment: Neuroprotective activity against serum starvation-induced cell death in human SH-SY5Y cells assessed as increase in cell […] at 20 and 40 uM after 3 days by tetrazolium reduction assay; assay type: functional, cell-based

| SMILES | Activity (SH-SY5Y [1]) | solubility [2] | Activity (SH-SY5Y [3]) | Activity (SH-SY5Y [4]) | solubility ([2]; read-out: solubility) [µM] |
| --- | --- | --- | --- | --- | --- |
| c1ccc(-c2cn(-c3ccc4nc(N5CCOCC5)sc4c3)nn2)cc1 | inactive | Insoluble | – | – | – |
| COC(=O)c1cn(-c2ccc3nc(N4CCOCC4)sc3c2)nn1 | inactive | Insoluble | – | – | – |
| CC(C)n1c(=O)c2ccccc2n1Cc1cn(-c2ccc3nc(N4CCOCC4)sc3c2)nn1 | – | – | Active | Active | > 40 |
